The source of these data is ChEMBL document CHEMBL1201862, “PubChem BioAssay data set” (2004).

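Following 48 hours of exposure in 96-well plates, responses at five concentrations were used to interpolate endpoints linearly. GI50: concentration for 50% inhibition of growth.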 Activity calls are given as the source filed them. Rule as the data show it: active = GI50 up to about 1.1 µM and inactive = higher.

Test systems include 786-0; A498; CAKI-1; COLO 205; Hs-578T; IGROV-1; KM12; LOX IMVI; MDA-MB-435; Malme-3M; OVCAR-8; SF-295; SF-539; SNB-19; TK-10; U-251; UACC-257; NCI-H522; SN12C; SR.
Experiment in all cases: NCI tumour cell line growth inhibition, 48 h

For `N#Cc1c(N2CCN(c3ccc([N+](=O)[O-])cc3)CC2)[n+]([O-])c2ccc(-c3ccc([N+](=O)[O-])cc3)cc2[n+]1[O-]`, the GI50 in the assay on 786-0 is > 47.8 µM (inactive); in the assay on A498 it was > 100 µM (inactive); in the assay with CAKI-1 it was 5.35 µM (inactive); with COLO 205 it was 17.9 µM (inactive); in the assay on Hs-578T, > 75.2 µM (inactive); in the assay on IGROV-1, 1.69 µM (inactive). Besides, the GI50 in the assay with KM12 was > 83.6 µM (inactive); in the assay with LOX IMVI it was 0.9 µM (active); with MDA-MB-435, 39.6 µM (inactive); in the assay on Malme-3M it was > 42 µM (inactive); in the assay with OVCAR-8, 1.62 µM (inactive); in the assay with SF-295 it was 8.51 µM (inactive). Also, the GI50 in the assay with SF-539 is 38.7 µM (inactive); with SNB-19 it was 9.18 µM (inactive); in the assay with TK-10, > 56.8 µM (inactive); in the assay with U-251, 1.25 µM (inactive); with UACC-257, 16.4 µM (inactive).
Turning to `CC1(C)O/C(=C\c2ccccc2)C(=O)/C(=C/c2ccccc2)O1`, the GI50 in the assay on 786-0 is 37.8 µM (inactive); in the assay on A498, > 100 µM (inactive); with CAKI-1 it was 55.3 µM (inactive); in the assay with COLO 205 it was 43.3 µM (inactive); in the assay with IGROV-1, 51.4 µM (inactive); in the assay with KM12 it was 53.8 µM (inactive). Moreover, the GI50 in the assay on LOX IMVI was 28.6 µM (inactive); in the assay with Malme-3M it was 38 µM (inactive); with NCI-H522, 3.4 µM (inactive); in the assay on OVCAR-8 it was 45.2 µM (inactive); with SF-295, 44.9 µM (inactive); in the assay with SF-539, 67 µM (inactive). The GI50 in the assay with SN12C is 47.6 µM (inactive); with SNB-19, 47.4 µM (inactive); with SR it was 20.5 µM (inactive); with TK-10, 44.2 µM (inactive); with U-251 it was 28.4 µM (inactive); in the assay on UACC-257, 22.5 µM (inactive).
Turning to `O=c1c2c(oc3ccccc13)-c1ccccc1OC2`, the GI50 was 24.4 µM (inactive) in the assay on 786-0; 26.1 µM (inactive) with CAKI-1; > 10 µM (inactive) in the assay on COLO 205; 36.7 µM (inactive) with IGROV-1; > 100 µM (inactive) with KM12; 46 µM (inactive) in the assay with LOX IMVI. The GI50 in the assay on MDA-MB-435 is > 100 µM (inactive); in the assay on Malme-3M it was > 100 µM (inactive); with NCI-H522 it was > 100 µM (inactive); in the assay with OVCAR-8 it was 27.9 µM (inactive); in the assay with SF-295, > 100 µM (inactive); in the assay on SF-539, 25.2 µM (inactive). The GI50 was 53.3 µM (inactive) in the assay with SN12C, > 100 µM (inactive) in the assay with TK-10, 29 µM (inactive) in the assay on U-251 and > 100 µM (inactive) in the assay with UACC-257.
Regarding `COc1cc(C2(C)SCCCS2)cc(OC)c1OC`, the GI50 with 786-0, with A498, in the assay on CAKI-1, with COLO 205, in the assay on IGROV-1 and in the assay with KM12 was > 100 µM (inactive) throughout. Moreover, the GI50 with LOX IMVI, in the assay on Malme-3M, in the assay on NCI-H522, in the assay with OVCAR-8, in the assay on SF-295 and in the assay with SF-539 was > 100 µM (inactive) each time. Besides, the GI50 with SN12C, in the assay on SNB-19, in the assay with SR, with TK-10, in the assay with U-251 and in the assay on UACC-257 was > 100 µM (inactive) throughout.
`C=CC1(c2ccc3ccccc3c2)OCC(CC)(CC)CO1`: the GI50 in the assay with 786-0 was 20.2 µM (inactive); with COLO 205, 16.3 µM (inactive); in the assay on Hs-578T it was 18.7 µM (inactive); with IGROV-1, 21.9 µM (inactive); with KM12, 20.8 µM (inactive); in the assay with LOX IMVI it was 18.4 µM (inactive). The GI50 was 22.7 µM (inactive) in the assay on MDA-MB-435; 28.2 µM (inactive) with Malme-3M; 24.5 µM (inactive) in the assay on NCI-H522; 48.3 µM (inactive) in the assay with OVCAR-8; 25.8 µM (inactive) in the assay on SF-295; 14.3 µM (inactive) in the assay with SF-539. The GI50 is 21.7 µM (inactive) in the assay with SN12C; 17.3 µM (inactive) in the assay with SNB-19; 37.5 µM (inactive) in the assay on TK-10; 21.5 µM (inactive) with U-251; 27.2 µM (inactive) with UACC-257.
In the case of `CCCOc1ccc(/C=C/c2cc(OC)c(OC)c(OC)c2)cc1`, the GI50 with 786-0 was 0.481 µM (active); in the assay with A498, 1.08 µM (active); with CAKI-1 it was 0.209 µM (active); in the assay with COLO 205, 0.298 µM (active); in the assay on IGROV-1, 0.399 µM (active); in the assay with KM12, 0.305 µM (active). Besides, the GI50 in the assay on LOX IMVI was 0.445 µM (active); in the assay on Malme-3M, 0.21 µM (active); in the assay on NCI-H522 it was 0.175 µM (active); in the assay on OVCAR-8, 0.525 µM (active); in the assay with SF-295, 0.185 µM (active); with SF-539 it was 0.269 µM (active). The GI50 with SN12C is 0.635 µM (active); with SNB-19, 0.681 µM (active); in the assay with SR, 0.548 µM (active); in the assay with TK-10, 55.1 µM (inactive); in the assay with U-251, 0.384 µM (active); with UACC-257, 0.348 µM (active).
As for `Cc1ccc(OCC2OC(n3cnc4c(Br)nc(Br)nc43)CC2Oc2ccc(C)cc2)cc1` (configuration not stated), the GI50 is 3.02 µM (inactive) in the assay on 786-0; 10.5 µM (inactive) in the assay on A498; 1.97 µM (inactive) in the assay with CAKI-1; 4.06 µM (inactive) in the assay with COLO 205; 5.04 µM (inactive) with IGROV-1; 3.08 µM (inactive) in the assay on KM12. Besides, the GI50 with LOX IMVI is 1.93 µM (inactive); with MDA-MB-435, 5.85 µM (inactive); with Malme-3M, 3.58 µM (inactive); with NCI-H522, 1.86 µM (inactive); in the assay with OVCAR-8, 3.69 µM (inactive); with SF-295, 8.49 µM (inactive). Also, the GI50 with SF-539 was 2.19 µM (inactive); with SN12C, 3.37 µM (inactive); in the assay on SNB-19, 7.31 µM (inactive); with SR, 1.96 µM (inactive); in the assay with TK-10, 21.8 µM (inactive); with U-251 it was 2.24 µM (inactive). Moreover, the GI50 in the assay on UACC-257 was 7.06 µM (inactive).
For `O=c1/c(=C\c2ccccc2)sc2n1C(c1ccccc1)C1(O)CCCCC1N=2` (configuration not stated), the GI50 in the assay with 786-0 was > 100 µM (inactive); in the assay with A498, 36.8 µM (inactive); in the assay on CAKI-1 it was > 100 µM (inactive); with IGROV-1, > 100 µM (inactive); in the assay on LOX IMVI, > 100 µM (inactive); with MDA-MB-435, > 100 µM (inactive). Moreover, the GI50 in the assay with Malme-3M was > 100 µM (inactive); with NCI-H522, > 100 µM (inactive); in the assay with OVCAR-8 it was > 100 µM (inactive); in the assay on SN12C, > 100 µM (inactive); in the assay with SNB-19, > 100 µM (inactive); in the assay on SR it was 62.5 µM (inactive). For the same molecule, the GI50 in the assay with TK-10, with U-251 and in the assay on UACC-257 was > 100 µM (inactive) in each case.
As for `COC(=O)C(C(=O)C(=O)Nc1ccc(C)cc1C)c1nc2ccc([N+](=O)[O-])cc2nc1O` (configuration not stated), the GI50 with 786-0 was > 100 µM (inactive); with A498, > 100 µM (inactive); with CAKI-1, > 100 µM (inactive); in the assay on COLO 205 it was 95.7 µM (inactive); in the assay with IGROV-1 it was > 100 µM (inactive); in the assay on KM12 it was > 100 µM (inactive). Also, the GI50 in the assay with LOX IMVI is > 100 µM (inactive); in the assay with Malme-3M, > 100 µM (inactive); in the assay on NCI-H522 it was 60.3 µM (inactive); in the assay with OVCAR-8, > 100 µM (inactive); in the assay with SF-295 it was > 100 µM (inactive); in the assay on SF-539, > 100 µM (inactive). Also, the GI50 with SN12C, with SNB-19, in the assay with SR, in the assay on TK-10, in the assay on U-251 and in the assay on UACC-257 was > 100 µM (inactive) in each case.
Take `CNC(C)Cc1ccccc1O` (configuration not stated): the GI50 in the assay with 786-0, with A498, with CAKI-1, in the assay with COLO 205, in the assay with IGROV-1 and with KM12 was > 100 µM (inactive) throughout. The GI50 in the assay on LOX IMVI, with Malme-3M, with NCI-H522, in the assay on OVCAR-8, in the assay on SF-295 and with SF-539 was > 100 µM (inactive) each time. The GI50 in the assay with SN12C, in the assay with SNB-19, with SR, in the assay with TK-10, with U-251 and in the assay on UACC-257 was > 100 µM (inactive) throughout.
Turning to `ClC(/N=N/c1ccccc1)=N/Nc1ccccc1`, the GI50 in the assay on 786-0 is > 100 µM (inactive); with A498 it was > 100 µM (inactive); with CAKI-1 it was 33.6 µM (inactive); in the assay with COLO 205 it was > 100 µM (inactive); with IGROV-1 it was > 100 µM (inactive); in the assay with KM12, 60.7 µM (inactive). Besides, the GI50 was 58.5 µM (inactive) with LOX IMVI; > 100 µM (inactive) in the assay on Malme-3M; 61.9 µM (inactive) with NCI-H522; > 100 µM (inactive) in the assay on OVCAR-8; 53.8 µM (inactive) with SF-295; > 100 µM (inactive) with SF-539. The GI50 in the assay on SN12C is > 100 µM (inactive); with SNB-19 it was > 100 µM (inactive); in the assay with SR, > 100 µM (inactive); in the assay on TK-10, 21.3 µM (inactive); in the assay with U-251 it was > 100 µM (inactive); in the assay with UACC-257, > 100 µM (inactive).
